In patent publication US8741645B2, “Test kit comprising a culture instrument with a cell pattern and a gel suitable to embed cell pattern” (Dai Nippon Printing Co., Ltd., priority 2006, dated 2014):

Columns and labels:
Format in all cases: cell-based
[1] = tested on: bovine aortic vascular endothelial cells; test: Lumen formation test (cell shrinkage), cell pattern sandwiched between substrate and GFR Matrigel (configuration of FIG. 3); design: key: ∘: Large inhibition effect; Δ: Small inhibition effect; x: No inhibition effect; settings: inhibitor previously added; shrinkage of multiple cells observed, GFR Matrigel
Method: (§1) An autoclave-sterilized substrate was arranged within a culture container and then an appropriate amount of MEM medium containing 5% fetal calf serum was added. 2.0×10^5 bovine aortic vascular endothelial cells were seeded per substrate. After 72 hours of culture, cells adhered only to oxidatively degraded regions and reached confluency on the lines each having a width of 60 μm.
200 μl of ice-cooled Growth Factor Reduced (GFR) Matrigel (Becton, Dickinson and Company) was spread over a culture container and then allowed to stand at room temperature for approximately 1 minute. The substrate was gently placed with its cell adhesion face down onto the matrigel. The resultant was allowed to stand for approximately 5 minutes while maintaining this condition. After complete gelling, MEM medium containing 5% fetal calf serum was added and then the substrate was immersed in the medium. The culture container was transferred into an incubator (37° C., 5% CO2) and then cells were cultured while being sandwiched between a substrate and matrigel. […] This is a phenomenon that is characteristically observed when vascular endothelial cells undergo lumen formation in response to differentiation signals coming from the extracellular matrix. When a vascularization inhibitor had been previously added to the three-dimensional culture system, shrinkage of multiple cells was inhibited or not inhibited according to the relevant pharmacologic action (Table 1). This means that the effect of a drug on lumen formation can be efficiently tested via observation of cell shrinkage that is observed at the initial stage of differentiation. This test method could also be performed for normal human umbilical vein endothelial cells in completely the same manner.

[2] = tested on: bovine aortic vascular endothelial cells; test: Vascularization test, three-dimensional culture of cell pattern in collagen gel (configuration of FIG. 2); settings: 50 μM added to three-dimensional culture system, medium with proliferation factors
Method: as §1, with “48” for “72”, “culture within an incubator (37° C., 5% CO2),” for “culture,”
A collagen solution was prepared on ice using a collagen gel culture kit (Cellmatrix I-A, Nitta gelatin). 500 μl of the solution was spread flatly over a 28 mm×33 mm well, followed by 10 minutes of gelling at 37° C. 2 ml of MEM medium containing 5% fetal calf serum was added to the gel. The substrate was caused to sink while upside-down in the medium, so that cells that had adhered to the substrate were caused to come into contact with collagen gel at the bottom. After 4 hours of culture within an incubator, the substrate was carefully removed using a pair of tweezers. […] The medium was removed by suction, 250 μl of the collagen solution was applied in layers to the cells, and then gelling was performed at 37° C. for 10 minutes. […]

[3] = tested on: Normal human (adult) dermal fibroblasts; test: Cell migration and proliferation of linear cell pattern embedded in collagen gel (configuration of FIG. 3); settings: 10 μM in culture solution; observed at 3, 6, 9 and 21 hours; compared with culture solution and DMSO systems
Method: The above dish was sterilized with 70% ethanol. Normal human (adult) dermal fibroblasts (KF-4109, Cascade Biologics) dispersed in a culture solution (basal medium M-106-500S, additive agent KE-6350, and Cascade Biologics/KURABO) was seeded at 4×10^5 cells per dish. Cells were cultured using an incubator under conditions of 37° C. and 5% CO2 for 18 hours. A linear pattern formed by cells that had adhered was obtained.
Cell aggregates were embedded into gel that had been prepared using the collagen gel kit used in Example 5 and then three-dimensional culture was performed with the configuration of FIG. 3. After 30 minutes of gelling at 37° C., three types of culture were performed using (1) a system containing the above culture solution, (2) a system containing a culture solution prepared by adding 10 μM inhibitor PP2 to the above culture solution, and (3) a system containing a culture solution containing DMSO with the same concentration as that of DMSO (used as a solvent for preparing 1 mM stock solution of PP2) contained in the above-prepared culture solution containing PP2.

Which “Inhibition effect (inhibiting lumen formation)” value (“Inhibition effect” for short) [1] does the source give for N=C(N)NC(=O)c1nc(Cl)c(N)nc1N [Amiloride] here?
Its value is “x”.

Which vascularization [2] does the source give for Cc1ccc(C(=O)Nc2ccc(S(=O)(=O)O)c3cc(S(=O)(=O)O)cc(S(=O)(=O)O)c23)cc1NC(=O)c1cccc(NC(=O)Nc2cccc(C(=O)Nc3cc(C(=O)Nc4ccc(S(=O)(=O)O)c5cc(S(=O)(=O)O)cc(S(=O)(=O)O)c45)ccc3C)c2)c1 [Suramin] here?
Its vascularization is “completely inhibited”.

And the “Inhibition effect” value [1]?
Its value is “x”.

With CC(C)(C)n1nc(-c2ccc(Cl)cc2)c2c(N)ncnc21 [PP2] as the molecule, how does the cell migration [3] read?
Its cell migration is “significantly suppressed”.

What about the cell proliferation [3] of the same molecule?
The cell proliferation was “significantly suppressed”.

And the “Inhibition effect” value [1]?
Its value is “∘”.

For O=c1cc(N2CCOCC2)oc2c(-c3ccccc3)cccc12 [LY294002], which “Inhibition effect” value [1] is on record?
The value was “Δ”.

With C[C@@H](N)[C@H]1CC[C@H](C(=O)Nc2ccncc2)CC1 [Y27632] as the molecule, how does the “Inhibition effect” value [1] read?
The value was “x”.

CN(C)c1ccc(O)c2c1C[C@H]1C[C@H]3[C@H](N(C)C)C(O)=C(C(N)=O)C(=O)[C@@]3(O)C(O)=C1C2=O [Minocycline] was tested. Which “Inhibition effect” value [1] did it give?
Its value is “x”.
